The record followed here is ChEMBL document CHEMBL1687706, “Inhibition of human immunodeficiency virus type 1 replication in human cells by Debio-025, a novel cyclophilin binding agent” (Antimicrob Agents Chemother, 2008).

Data set [1] has as its system Yellow fever virus. As to the kind of experiment: Antiviral activity against Yellow fever virus 17D infected in african green monkey Vero cells assessed as inhibition of viral replication. The format is functional, cell-based.
Data set [2] deals with Rattus norvegicus. As to the kind of experiment: Immunosuppressive activity in Sprague-Dawley rat […] model assessed as percent T lymphocytes at 10 mg/kg, po administered once daily for 28 days by flow cytometry. The format is functional. On the technique in general: Flow cytometry measures light scatter and fluorescence of single cells or particles in a stream.
Data set [3] deals with Influenza A virus. As to the kind of experiment: Antiviral activity against Influenza A virus H3N2 infected in MDCK cells assessed as inhibition of viral replication. The format is functional, organism-based.
In data set [4] the test system is Influenza A virus. As to the kind of experiment: Antiviral activity against Influenza A virus H1N1 infected in MDCK cells assessed as inhibition of viral replication. Format: functional, organism-based.
Data set [5] relates to Feline coronavirus. As to the kind of experiment: Antiviral activity against Feline coronavirus infected in CRFK assessed as inhibition of viral replication. The format is functional, organism-based. Particulars: Alphacoronavirus 1, CRFK.
Data set [6] deals with Rattus norvegicus. As to the kind of experiment: Immunosuppressive activity in Sprague-Dawley rat […] model assessed as percent T-helper cells at 10 mg/kg, po administered once daily for 28 days by flow cytometry. Format: functional.
Data set [7] relates to Rattus norvegicus. As to the kind of experiment: Immunosuppressive activity in Sprague-Dawley rat […] model assessed as IgM level at 10 mg/kg, po administered once daily for 28 days by ELISA. The format is functional. (ELISA stands for enzyme-linked immunosorbent assay.)
Data set [8] relates to Influenza B virus. As to the kind of experiment: Antiviral activity against influenza B virus infected in MDCK cells assessed as inhibition of viral replication. The format is functional, organism-based.
Data set [9] concerns Human alphaherpesvirus 2. As to the kind of experiment: Antiviral activity against Herpes simplex virus 2 196 infected in human embryonic lung cells assessed as inhibition of viral replication. The format is functional, organism-based. Conditions: Human alphaherpesvirus 2, 196, lung.
Data set [10] relates to Human papillomavirus type 16. As to the kind of experiment: Antiviral activity against HPV-16 infected in Caski cells assessed as inhibition of viral replication after 7 days. The format is functional, Human papillomavirus 16.
Data set [11] deals with Human respiratory syncytial virus. As to the kind of experiment: Antiviral activity against RSV infected in human HeLa cells assessed as inhibition of viral replication.
Data set [12] concerns Human alphaherpesvirus 1. As to the kind of experiment: Antiviral activity against Herpes simplex virus 1 KOS infected in human embryonic lung cells assessed as inhibition of viral replication. The format is functional, organism-based. Conditions: Human alphaherpesvirus 1, KOS.
In data set [13] the test system is SARS-CoV. As to the kind of experiment: Antiviral activity against SARS coronavirus infected in african green monkey Vero cells assessed as inhibition of viral replication. Format: functional, organism-based. Particulars: Severe acute respiratory syndrome-related coronavirus.
For data set [14], the system named is Human immunodeficiency virus 1. As to the kind of experiment: microbe, parasite or virus in culture. Particulars: Human immunodeficiency virus 1, SF2.
For data set [15], the system named is Bovine viral diarrhea virus 1. As to the kind of experiment: Antiviral activity against BVDV infected in […] cells assessed as inhibition of viral replication. Particulars: Bovine viral diarrhea virus isolates and strains. The format is functional, organism-based.
The subject of data set [16] is Hepatitis C virus. As to the kind of experiment: Antiviral activity against HCV infected in human Huh 5.2 cells assessed as reduction in viral RNA level by luciferase reporter gene assay. The format is functional, organism-based, Hepacivirus hominis. Particulars: Huh-5-2. (In general: In a reporter assay the amount or activity of a reporter protein is the signal.)

Data set [17] deals with Human alphaherpesvirus 3. As to the kind of experiment: Antiviral activity against VZV OKA infected in human embryonic lung cells assessed as inhibition of. Format: functional, organism-based. Conditions: Human alphaherpesvirus 3, OKA.
Data set [18] concerns Human immunodeficiency virus 1. As to the kind of experiment: microbe, parasite or virus in culture. Particulars: Human immunodeficiency virus 1, 3B, MT4.
The subject of data set [19] is Human papillomavirus type 16. As to the kind of experiment: Antiviral activity against HPV-16 infected in Caski cells assessed as inhibition of viral replication after 3 days. Format: functional, organism-based, Human papillomavirus 16. Particulars: Human papillomavirus 16, Ca-Ski, 72 h.
Data set [20] has as its system Human immunodeficiency virus 1. Particulars: Human immunodeficiency virus 1, 3B.
Data set [21] concerns Vaccinia virus. As to the kind of experiment: Antiviral activity against Vaccinia virus infected in human embryonic lung cells assessed as reduction in viral yield measured after 3 days. Format: functional, organism-based. Conditions: Orthopoxvirus vaccinia, 72 h.
The subject of data set [22] is Human alphaherpesvirus 2. As to the kind of experiment: Antiviral activity against Herpes simplex virus 2 Lyons infected in human embryonic lung cells assessed as inhibition of viral replication. The format is functional, organism-based. Particulars: Human alphaherpesvirus 2, Lyons.
Data set [23] concerns Human alphaherpesvirus 2. As to the kind of experiment: Antiviral activity against Herpes simplex virus 2 G infected in human embryonic lung cells assessed as inhibition of viral replication. The format is functional, organism-based. Particulars: Human alphaherpesvirus 2, strain G.
In data set [24] the test system is Human alphaherpesvirus 1. As to the kind of experiment: Antiviral activity against Herpes simplex virus 1 McIntyre infected in human embryonic lung cells assessed as inhibition of viral replication. Format: functional, organism-based. Particulars: Human alphaherpesvirus 1, McIntyre.
Data set [25] relates to Coxsackievirus. As to the kind of experiment: Antiviral activity against Coxsackie B3 infected in african green monkey Vero cells assessed as inhibition of viral replication. The format is functional, organism-based.
Data set [26] relates to Vesicular stomatitis virus. As to the kind of experiment: Antiviral activity against VSV infected in human embryonic lung cells assessed as inhibition of viral replication. The format is functional, organism-based.
For data set [27], the system named is Human alphaherpesvirus 1. As to the kind of experiment: Antiviral activity against Herpes simplex virus 1 F infected in human embryonic lung cells assessed as inhibition of viral replication. The format is functional, organism-based. Conditions: Human alphaherpesvirus 1, strain F.
Data set [28] concerns Human betaherpesvirus 5. As to the kind of experiment: Antiviral activity against Human cytomegalovirus AD169 infected in human embryonic lung cells assessed as reduction in viral yield. Format: functional, organism-based. Conditions: Human betaherpesvirus 5, AD169, lung.
The test system of data set [29] is Human betaherpesvirus 5. As to the kind of experiment: Antiviral activity against Human cytomegalovirus Davis infected in human embryonic lung cells assessed as reduction in viral yield. Format: functional, organism-based. Conditions: Human betaherpesvirus 5, Davis.
For data set [30], the system named is Rattus norvegicus. As to the kind of experiment: Immunosuppressive activity in Sprague-Dawley rat KHL model assessed as percent cytotoxic T cells at 10 mg/kg, po administered once daily for 28 days by flow cytometry. Format: functional, T-cell.
Data set [31] deals with Jurkat. As to the kind of experiment: Immunosuppressive activity in human Jurkat cells assessed as inhibition of PHA-phorbol myristate acetate induced beta-galactosidase activity at 6.75 uM. Format: functional, cell-based.
Data set [32] relates to MT4. As to the kind of experiment: Cytotoxicity against human MT4 cells at 0.83 uM by MTT assay. Conditions: mt4, 0.83 µM. Format: cell-based.
Data set [33] has as its system PBMC. As to the kind of experiment: Cytotoxicity against human PBMC at 0.83 uM by MTT assay. The format is cell-based.

pIC50: −log10 of the molar value. Calls of active or inactive are those of the source. The calls are words filed in the database; no cut-off is given here.

By pIC50 is commonly meant the negative decadic logarithm of the IC50, by convention in mol/L. Take `C/C=C/C[C@@H](C)[C@@H](O)[C@H]1C(=O)N[C@@H](CC)C(=O)N(C)CC(=O)N(C)[C@@H](CC(C)C)C(=O)N[C@@H](C(C)C)C(=O)N(C)[C@@H](CC(C)C)C(=O)N[C@@H](C)C(=O)N[C@H](C)C(=O)N(C)[C@@H](CC(C)C)C(=O)N(C)[C@@H](CC(C)C)C(=O)N(C)[C@@H](C(C)C)C(=O)N1C` [CYCLOSPORINE]: the pIC50 in data set [1] is < 4.78; in data set [3] it was < 4.83; in data set [4], < 4.83; in data set [5], 5.82; in data set [8] it was < 4.83; in data set [9] it was < 5.08. In addition, the pIC50 is < 5.08 in data set [11]; < 5.08 in [12]; < 5.08 in [13]; 6.27 in [14]; < 5.00 in [15]; 5.64 in data set [16]. Besides, the pIC50 in data set [17] was 5.48; in [18] it was < 6.08; in data set [19], 6.40; in data set [20] it was 6.35; in data set [21] it was < 5.08; in data set [22], < 5.08. The pIC50 in [23] was < 5.08; in [24], < 5.08; in [25] it was < 4.60; in data set [26], < 5.08; in data set [27] it was < 5.08; in data set [28] it was < 4.74. Further, the pIC50 in data set [29] is < 4.74. Besides, the Activity in data set [2] is recorded as 33.6%; in [6], 23.1%; in data set [30], 9.2%. For the same compound, in [7], the deltaA stood at 0.18. The TC50 in data set [10] worked out at 0.3 µM.

With `C/C=C/C[C@@H](C)[C@@H](O)[C@H]1C(=O)N[C@@H](CC)C(=O)N(C)CC(=O)N(C)[C@@H]([C@@H](C)CC)C(=O)N[C@@H](C(C)C)C(=O)N(C)[C@@H](CC(C)C)C(=O)N[C@@H](C)C(=O)N[C@H](C)C(=O)N(C)[C@@H](CC(C)C)C(=O)N(C)[C@@H](CC(C)C)C(=O)N(C)[C@@H](C(C)C)C(=O)N1C` [NIM811], the inhibition result in [31] is “Active”. For the same compound, the pIC50 was 6.30 in data set [14], 6.51 in [18] and 6.33 in [20]. The Activity result in data set [32] and in data set [33] was “Non-toxic” in each case.
